This is an account of results in ChEMBL document CHEMBL3400079 (Bioorg Med Chem, 2015).

The target of this assay is T1, AGAP002992-PA (Anopheles gambiae, UniProt Q5TU56).
T1 sequence (Q5TU56 whole entry): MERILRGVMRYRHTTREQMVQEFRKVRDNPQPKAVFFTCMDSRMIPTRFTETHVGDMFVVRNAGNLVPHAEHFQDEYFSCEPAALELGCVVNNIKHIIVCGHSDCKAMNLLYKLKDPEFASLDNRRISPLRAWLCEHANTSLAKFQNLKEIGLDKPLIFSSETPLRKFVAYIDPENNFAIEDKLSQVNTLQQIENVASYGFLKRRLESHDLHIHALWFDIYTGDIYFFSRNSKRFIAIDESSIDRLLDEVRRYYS
Description: Inhibition of Anopheles gambiae carbonic anhydrase pre-incubated for 15 mins by stopped-flow CO2 hydration assay

Broadly, the Ki is the equilibrium dissociation constant of an inhibitor or competing ligand from its target. Low values mean tighter binding, high ones weaker binding. In turn, `NS(=O)(=O)c1ccc(O)cc1` displayed a Ki of more than 100000 nM.

Regarding `NS(=O)(=O)c1ccc(CCNS(=O)(=O)c2ccc([N+](=O)[O-])cc2CO)cc1`, the affinity, expressed as Ki, was 6.1 nM. This lies in the single-digit nanomolar range.

On to `NS(=O)(=O)c1cccc(S(N)(=O)=O)c1`, for which the inhibitory constant (Ki) is 843 nM.

For `NS(=O)(=O)c1cc(Cl)cc(Cl)c1O`, affinity was put at a Ki of 6480 nM.

`Nc1nnc(S(N)(=O)=O)s1`: the inhibition constant Ki came out at 737 nM.

`Nc1ccc(S(=O)(=O)NCc2ccc(S(N)(=O)=O)cc2)cc1` came in with a Ki of 81.9 nM.

Turning to `Nc1cc(Cl)c(S(N)(=O)=O)cc1S(N)(=O)=O`, affinity was put at a Ki of 756 nM.

`Nc1ccc(S(=O)(=O)Nc2nnc(S(N)(=O)=O)s2)cc1` gave a Ki of 6.8 nM.

The compound `Nc1ccc(S(=O)(=O)Nc2ccc(S(N)(=O)=O)cc2)cc1` registered a Ki of 83.4 nM.

In the case of `Nc1nccc(Nc2ccc(S(N)(=O)=O)cc2)n1`, the affinity, expressed as Ki, was 10600 nM.

`Nc1ccc(S(N)(=O)=O)cc1Br` displayed a Ki of 855 nM.

Regarding `Cn1nc(S(N)(=O)=O)sc1=N`, the Ki came to 1680 nM.

As for `NS(=O)(=O)c1ccc(CCO)cc1`, the Ki is more than 100000 nM.

In turn, `Nc1cccc(S(N)(=O)=O)c1` showed a Ki of 887 nM.

For the compound `Nc1ccc(S(N)(=O)=O)cc1F`, the Ki turned out to be 902 nM. This Ki and that of the compound before are within 1.5-fold of each other.

`NS(=O)(=O)c1ccc(CO)cc1` came in with a Ki of more than 100000 nM.

For the compound `NCCc1ccc(S(N)(=O)=O)cc1`, the affinity, expressed as Ki, was 835 nM.

Compound `Nc1ccc(S(N)(=O)=O)cc1Cl` gave a Ki of 12400 nM.

Take `Nc1ccc(S(=O)(=O)NCCc2ccc(S(N)(=O)=O)cc2)cc1`: the inhibition constant (Ki) stood at 47 nM.

Regarding `NS(=O)(=O)c1ccc(S(=O)(=O)Nc2cccc3c(Cl)c[nH]c23)cc1`, the Ki worked out at 226 nM.

In turn, `Nc1cc(C(F)(F)F)c(S(N)(=O)=O)cc1S(N)(=O)=O` [2,4-DISULFAMYLTRIFLUOROMETHYLANILINE] had a Ki of 4360 nM. This Ki is about 19-fold higher than that of the compound before.

Regarding `NS(=O)(=O)c1nnc(NS(=O)(=O)c2ccccc2)s1` [BENZOLAMIDE], the Ki is 9.8 nM.

Take `CCN[C@H]1CN(CCCOC)S(=O)(=O)c2sc(S(N)(=O)=O)cc21` [BRINZOLAMIDE]: the affinity corresponds to a Ki of 31.4 nM.

`Cc1ccc(-c2cc(C(F)(F)F)nn2-c2ccc(S(N)(=O)=O)cc2)cc1` [CELECOXIB] registered a Ki of 173 nM.

As for `CCOc1ccc2nc(S(N)(=O)=O)sc2c1` [ETHOXZOLAMIDE], the affinity, expressed as Ki, was 185 nM. The Ki values of the last two compounds are within 1.5-fold of each other.

On to `NCc1ccc(S(N)(=O)=O)cc1` [MAFENIDE], for which the inhibitory constant (Ki) was determined as 13600 nM.

`Cc1ccc(S(N)(=O)=O)cc1` [P-TOLUENESULFONAMIDE] had a Ki of 12400 nM.

The compound `O=C1NS(=O)(=O)c2ccccc21` [SACCHARIN] gave an inhibitory constant (Ki) of 95.3 nM.

The compound `Nc1ccc(S(N)(=O)=O)cc1` [SULFANILAMIDE] registered a Ki of 862 nM.

In turn, `CC1(C)O[C@@H]2[C@@H](CO[C@@]3(COS(N)(=O)=O)OC(C)(C)O[C@@H]23)O1` [TOPIRAMATE] registered a Ki of more than 100000 nM.
